# Data from ChEMBL document CHEMBL5244214, “An update on small molecule strategies targeting leishmaniasis” (Eur J Med Chem, 2018).
# How the values were obtained:
# [1] = Cytotoxicity against mouse peritoneal macrophages assessed as reduction in cell viability incubated for 24 hrs by MTT assay; format: toxicity, cell-based, Peritoneal macrophage
# Leishmania major [2] = experiment: Antileishmanial activity against Leishmania major MRHO/IR/75/E promastigotes assessed as parasite growth inhibition incubated for 24 hrs by MTT assay; format: functional, organism-based
# Leishmania donovani = experiment: Antileishmanial activity against Leishmania donovani promastigotes assessed as parasite growth inhibition; format: functional, organism-based
# Leishmania major [3] = experiment: Antileishmanial activity against Leishmania major assessed as inhibition of parasite growth; format: functional, organism-based
# Leishmania aethiopica [4] = experiment: Antileishmanial activity against Leishmania aethiopica axenic amastigotes assessed as parasite growth inhibition incubated for 72 hrs by resazurin staining based analysis; format: functional, organism-based
# Leishmania aethiopica [5] = experiment: Antileishmanial activity against Leishmania aethiopica promastigotes assessed as parasite growth inhibition incubated for 24 hrs by alamar blue staining based analysis; format: functional, organism-based
# Leishmania major [6] = experiment: Antileishmanial activity against Leishmania major promastigotes assessed as parasite growth inhibition at 10 uM incubated for 72 hrs by MTT assay; format: functional; conditions: read-out: GI
# Leishmania major [7] = experiment: Antileishmanial activity against Leishmania major promastigotes assessed as parasite growth inhibition at 0.1 uM incubated for 72 hrs by MTT assay; format: functional; conditions: read-out: GI
# Leishmania major [8] = experiment: Antileishmanial activity against Leishmania major promastigotes assessed as parasite growth inhibition at 100 uM incubated for 72 hrs by MTT assay; format: functional; conditions: read-out: GI
# Leishmania major [9] = experiment: Antileishmanial activity against Leishmania major promastigotes assessed as parasite growth inhibition at 1 uM incubated for 72 hrs by MTT assay; format: functional; conditions: read-out: GI
compound,measurement,setting,value
CCCNC(=O)CSc1nnc(-c2ccc([N+](=O)[O-])o2)s1,IC50 at 24 h,[1],59.7 µM
same,IC50,Leishmania major [2],19.5 µM
O=C(CSc1nnc(-c2ccc([N+](=O)[O-])o2)s1)NCc1ccccc1,IC50 at 24 h,[1],86.9 µM
same,IC50,Leishmania major [2],46.7 µM
O=c1oc2ccccc2c(O)c1C(c1ccoc1)N1CCOCC1 (stereo unspecified),IC50,Leishmania donovani,14.7 µM
COCCCNc1nnc(-c2ccc([N+](=O)[O-])s2)s1,IC50,Leishmania major [3],3000 nM
CN1CCN(C(c2c(O)c3ccccc3oc2=O)c2c[nH]c3ccccc23)CC1 (stereo unspecified),IC50,Leishmania donovani,13.1 µM
Cc1cccc2cc(C(c3c(O)c4ccccc4oc3=O)N3CCN(C)CC3)c(Cl)nc12 (stereo unspecified),IC50,Leishmania donovani,6.9 µM
COc1ccc(CCNC(=O)CSc2nnc(-c3ccc([N+](=O)[O-])o3)s2)cc1OC,IC50 at 24 h,[1],56 µM
same,IC50,Leishmania major [2],19.1 µM
COc1nc(OC)nc(N(CC(=O)[C@@H](N)C(C)C)CC(=O)[C@@H](N)C(C)C)n1,IC50,Leishmania aethiopica [4],220 nM
same,IC50,Leishmania aethiopica [5],1400 nM
O=[N+]([O-])c1ccc(-c2nnc(NCCCO)s2)s1,IC50,Leishmania major [3],3000 nM
COc1ccc(NC(=O)CCC(=O)O)c([N+](=O)[O-])c1,inhibition of growth at 10 µM,Leishmania major [6],50.4%
same,inhibition of growth at 0.1 µM,Leishmania major [7],59.3%
same,inhibition of growth at 100 µM,Leishmania major [8],56.8%
same,inhibition of growth at 1 µM,Leishmania major [9],45.5%
C[C@@H]1[C@H](O)[C@@H](C)/C=C/C=C/C=C/C=C/C=C/C=C/C=C/[C@H](O[C@@H]2O[C@H](C)[C@@H](O)[C@H](N)[C@@H]2O)C[C@@H]2O[C@](O)(C[C@@H](O)C[C@@H](O)[C@H](O)CC[C@@H](O)C[C@@H](O)CC(=O)O[C@H]1C)C[C@H](O)[C@H]2C(=O)O [AMPHOTERICIN B],inhibition of growth at 10 µM,Leishmania major [6],76.3%
same,inhibition of growth at 0.1 µM,Leishmania major [7],69.8%
same,inhibition of growth at 100 µM,Leishmania major [8],79.8%
same,inhibition of growth at 1 µM,Leishmania major [9],74.8%
